Test results: patent US6576622B1, “Drug combination for the treatment of viral diseases” (University of Medicine & Dentistry of New Jersey, priority 1995, dated 2003)

What was measured:
MLV-neo = MLV-neo colony formation in the presence of antiviral agents; assay type: cell-based, Moloney Leukemia virus
Description: (§1) Production of recombinant HIV-gpt has been described elsewhere (26). The amphotropic cell line PA317 was transfected with the recombinant murine retrovirus pLXSN (36) and was used as the source of the recombinant MLV-neo virus. Stock preparations of HIV-1IIIB were harvested from H9 cells by the “shake off method” (13). Stock virus infectivity was determined by end-point dilution in MT-2 cells (32). Virus induced cytopathic effect was scored 7 days post-infection and the TCID50 was calculated with the Reed and Muench equation (33).
(§2) To confirm this high rate of infection in the absence of genetic drug resistance, we used several other recombinant viruses and host cells. […] A high rate of infection of Jurkat cells in the presence of d4T has also been seen.
(§3) Table 5. HIV-gpt produced in COS cells by transfection with plasmids (plasmid derived) is compared with HIV-gpt produced by, rescue from H9/HIV-gpt cell line after infection with HIV-IIIB and cells infected with MLV-neo.
(§4) Table 6. Colony formation and persistent resistance after Hela-T4 cell infection with MLV-neo virus in the presence and absence of various antiviral agents.

HIV-gpt [1] = test: HIV-gpt colony formation after infection of HeLa-T4 cells in the presence of antiretroviral agents; assay type: cell-based; details: HeLa-T4; plasmid derived HIV-gpt (COS cells); AZT 10 μM, DDI 50 μM, D4T 50 μM; no drug control 8800
HIV-IIIB = HIV-IIIB infection of JE6.1 cells refractory to d4T, D4T IC50 with FUdr (RT activity); assay type: cell-based, HIV-1; details: Human immunodeficiency virus 1, IIIB, 144 h, concentration of D4T for 50% inhibition of RT activity on day 6, F = uM FUdr
Description: Table 8. Jurkat JE6.1 cells refractory to the antiviral activity of d4T (D4T bulk, D4TR1, D4TR3) and control JE6.1 cells were infected with HIV-IIIB in the presence of 0.001 uM d4T, 0.01 uM d4T 0.1 uM d4T, 1 uM d4T, 10 uM d4T, 100 uM d4T and 1000 uM d4T in the presence of 0.005 uM FUdr, 0.01 uM FUdr or 0.25 uM FUdr.

[2] = tested on: recombinant HIV, recombinant MLV, or replication-competent HIV; assay type: cell-based
Text: The presence of a selectable marker gene in the recombinant HIV allowed the isolation of cells infected by the recombinant viruses in the presence of d4T. These cells were characterized by infection with both additional recombinant viruses and by replication-competent viruses.
as §4

MLV-LacZ = test: Infection of Jurkat JE6.1 cell clones with MLV-LacZ in the presence of D4T; assay type: cell-based
Text: Table 7. Infection of Jurkat JE6.1 cell clones sensitive and resistant to D4T.
** Bulk=bulk culture; R=resistant clone; C=control clone; JE6.1=parental cell line.

HIV-LacZ = assay type: cell-based; details: d4T at 50 μM
HIV-gpt [3] = test: HIV-gpt colony formation in the presence of D4T; assay type: cell-based; details: for Frequency: with D4T
Description: as §1, §2, §3

**Q.** Which results are given for `Cc1cn([C@H]2C=C[C@@H](CO)O2)c(=O)[nH]c1=O` [D4T, Stavudine]?
**A.** No. of colonies (MLV-neo; Hela-T4, AZT 10 uM, DDI 50 uM, DDC 10 uM, D4T 50 uM, control 9050): 63; No. of colonies with D4T (MLV-neo; without D4T 9.2 × 10^4): 101; Number of colonies (HIV-gpt [1]): 50; IC50 (HIV-IIIB; D4TBulk cells (refractory to d4T)): 3 µM; IC50 (HIV-IIIB; D4TR1 cells (refractory to d4T)): 74 µM; IC50 (HIV-IIIB; D4TR3 cells (refractory to d4T)): 2 µM; IC50 (HIV-IIIB; JE6.1 control cells): 0.02 µM; cells infected with HIV in the presence of d4T that are readily re-infected in the presence of high concentrations of d4T [2]: ~50%; No. of persistently resistant colonies ([2]; Hela-T4, MLV-neo, AZT 10 uM, DDI 50 uM, DDC 10 uM, D4T 50 uM, resistant/tested): 23/63; isolated cells repeatedly refractory to the antiviral effects of d4T ([2]; cells infected in the presence of d4T, re-infection at high concentrations of d4T): approximately 37%; Frequency ([2]; frequency of persistently resistant colonies, Hela-T4, MLV-neo): 2.5 × 10^−3; % cells infected with MLV-LacZ in the presence of D4T relative to absence of D4T (MLV-LacZ; JE6.1 parental cell line, 50 uM D4T): − ((−), 20%); % cells infected with MLV-LacZ in the presence of D4T relative to absence of D4T (MLV-LacZ; JE6.1 parental cell line, 100 uM D4T): − ((−), 20%); % cells infected with MLV-LacZ in the presence of D4T relative to absence of D4T (MLV-LacZ; Jurkat Bulk (bulk culture), 50 uM D4T): ++ ((++) 41-60%); % cells infected with MLV-LacZ in the presence of D4T relative to absence of D4T (MLV-LacZ; Jurkat Bulk (bulk culture), 100 uM D4T): + ((+) 21-40%); % cells infected with MLV-LacZ in the presence of D4T relative to absence of D4T (MLV-LacZ; Jurkat control clone C2, 50 uM D4T): − ((−), 20%); % cells infected with MLV-LacZ in the presence of D4T relative to absence of D4T (MLV-LacZ; Jurkat control clone C2, 100 uM D4T): − ((−), 20%); % cells infected with MLV-LacZ in the presence of D4T relative to absence of D4T (MLV-LacZ; Jurkat control clone C23, 50 uM D4T): − ((−), 20%); % cells infected with MLV-LacZ in the presence of D4T relative to absence of D4T (MLV-LacZ; Jurkat control clone C23, 100 uM D4T): − ((−), 20%); % cells infected with MLV-LacZ in the presence of D4T relative to absence of D4T (MLV-LacZ; Jurkat control clone C26, 50 uM D4T): − ((−), 20%); % cells infected with MLV-LacZ in the presence of D4T relative to absence of D4T (MLV-LacZ; Jurkat control clone C26, 100 uM D4T): − ((−), 20%); % cells infected with MLV-LacZ in the presence of D4T relative to absence of D4T (MLV-LacZ; Jurkat control clone C27, 50 uM D4T): − ((−), 20%); % cells infected with MLV-LacZ in the presence of D4T relative to absence of D4T (MLV-LacZ; Jurkat control clone C27, 100 uM D4T): − ((−), 20%); % cells infected with MLV-LacZ in the presence of D4T relative to absence of D4T (MLV-LacZ; Jurkat resistant clone R1, 50 uM D4T): ++++ ((++++), 81-100%); % cells infected with MLV-LacZ in the presence of D4T relative to absence of D4T (MLV-LacZ; Jurkat resistant clone R1, 100 uM D4T): ++++ ((++++), 81-100%); % cells infected with MLV-LacZ in the presence of D4T relative to absence of D4T (MLV-LacZ; Jurkat resistant clone R3, 50 uM D4T): +++ ((+++), 61-80%); % cells infected with MLV-LacZ in the presence of D4T relative to absence of D4T (MLV-LacZ; Jurkat resistant clone R3, 100 uM D4T): ++ ((++) 41-60%); % cells infected with MLV-LacZ in the presence of D4T relative to absence of D4T (MLV-LacZ; Jurkat resistant clone R4, 50 uM D4T): − ((−), 20%); % cells infected with MLV-LacZ in the presence of D4T relative to absence of D4T (MLV-LacZ; Jurkat resistant clone R4, 100 uM D4T): − ((−), 20%); % cells infected with MLV-LacZ in the presence of D4T relative to absence of D4T (MLV-LacZ; Jurkat resistant clone R7, 50 uM D4T): − ((−), 20%); % cells infected with MLV-LacZ in the presence of D4T relative to absence of D4T (MLV-LacZ; Jurkat resistant clone R7, 100 uM D4T): − ((−), 20%); % cells infected with MLV-LacZ in the presence of D4T relative to absence of D4T (MLV-LacZ; Jurkat resistant clone R12, 50 uM D4T): ++++ ((++++), 81-100%); % cells infected with MLV-LacZ in the presence of D4T relative to absence of D4T (MLV-LacZ; Jurkat resistant clone R12, 100 uM D4T): ++++ ((++++), 81-100%); % cells infected with MLV-LacZ in the presence of D4T relative to absence of D4T (MLV-LacZ; Jurkat resistant clone R14, 50 uM D4T): + ((+) 21-40%); % cells infected with MLV-LacZ in the presence of D4T relative to absence of D4T (MLV-LacZ; Jurkat resistant clone R14, 100 uM D4T): − ((−), 20%); % cells infected with MLV-LacZ in the presence of D4T relative to absence of D4T (MLV-LacZ; Jurkat resistant clone R15, 50 uM D4T): ++++ ((++++), 81-100%); % cells infected with MLV-LacZ in the presence of D4T relative to absence of D4T (MLV-LacZ; Jurkat resistant clone R15, 100 uM D4T): ++++ ((++++), 81-100%); % cells infected with MLV-LacZ in the presence of D4T relative to absence of D4T (MLV-LacZ; Jurkat resistant clone R16, 50 uM D4T): + ((+) 21-40%); % cells infected with MLV-LacZ in the presence of D4T relative to absence of D4T (MLV-LacZ; Jurkat resistant clone R16, 100 uM D4T): − ((−), 20%); % cells infected with MLV-LacZ in the presence of D4T relative to absence of D4T (MLV-LacZ; Jurkat resistant clone R19, 50 uM D4T): − ((−), 20%); % cells infected with MLV-LacZ in the presence of D4T relative to absence of D4T (MLV-LacZ; Jurkat resistant clone R19, 100 uM D4T): − ((−), 20%); % cells infected with MLV-LacZ in the presence of D4T relative to absence of D4T (MLV-LacZ; Jurkat resistant clone R20, 50 uM D4T): ++++ ((++++), 81-100%); % cells infected with MLV-LacZ in the presence of D4T relative to absence of D4T (MLV-LacZ; Jurkat resistant clone R20, 100 uM D4T): +++ ((+++), 61-80%); % cells infected with MLV-LacZ in the presence of D4T relative to absence of D4T (MLV-LacZ; Jurkat resistant clone R21, 50 uM D4T): ++++ ((++++), 81-100%); % cells infected with MLV-LacZ in the presence of D4T relative to absence of D4T (MLV-LacZ; Jurkat resistant clone R21, 100 uM D4T): ++++ ((++++), 81-100%); % cells infected with MLV-LacZ in the presence of D4T relative to absence of D4T (MLV-LacZ; Jurkat resistant clone R22, 50 uM D4T): ++ ((++) 41-60%); % cells infected with MLV-LacZ in the presence of D4T relative to absence of D4T (MLV-LacZ; Jurkat resistant clone R22, 100 uM D4T): + ((+) 21-40%); % cells infected with MLV-LacZ in the presence of D4T relative to absence of D4T (MLV-LacZ; Jurkat resistant clone R26, 50 uM D4T): + ((+) 21-40%); % cells infected with MLV-LacZ in the presence of D4T relative to absence of D4T (MLV-LacZ; Jurkat resistant clone R26, 100 uM D4T): − ((−), 20%); % cells infected with MLV-LacZ in the presence of D4T relative to absence of D4T (MLV-LacZ; Jurkat resistant clone R29, 50 uM D4T): − ((−), 20%); % cells infected with MLV-LacZ in the presence of D4T relative to absence of D4T (MLV-LacZ; Jurkat resistant clone R29, 100 uM D4T): − ((−), 20%); % cells infected with MLV-LacZ in the presence of D4T relative to absence of D4T (MLV-LacZ; Jurkat resistant clone R33, 50 uM D4T): +++ ((+++), 61-80%); % cells infected with MLV-LacZ in the presence of D4T relative to absence of D4T (MLV-LacZ; Jurkat resistant clone R33, 100 uM D4T): + ((+) 21-40%); % cells infected with MLV-LacZ in the presence of D4T relative to absence of D4T (MLV-LacZ; Jurkat resistant clone R36, 50 uM D4T): ++++ ((++++), 81-100%); % cells infected with MLV-LacZ in the presence of D4T relative to absence of D4T (MLV-LacZ; Jurkat resistant clone R36, 100 uM D4T): ++ ((++) 41-60%); cross resistance of cell lines “persistently resistant” to AZT to other nucleoside analogs (HIV-LacZ): partial cross resistance; Frequency (HIV-gpt [3]; HIV-gpt by rescue with HIV): 1.6 × 10^3; No. of colonies with D4T (HIV-gpt [3]; HIV-gpt by rescue with HIV, without D4T 3.4 × 10^4): 53; Frequency (HIV-gpt [3]; plasmid derived HIV-gpt): 1.7 × 10^3; No. of colonies with D4T (HIV-gpt [3]; plasmid derived HIV-gpt, without D4T 4.7 × 10^4): 80
